Where two headings read alike, the source gives them in different places.
Legend:
[1] = test system: SAM concentrations; details: Bacchi et al. 1987; cited from earlier work
[2] = test system: gastric mucosal stress ulcers; details: polyamine-stimulated healing, Wang et al.; cited from earlier work
[3] = test system: puncture wounds; assay: Mouse puncture wound model, Experiment 3 (about 6 mm wounds, wound area, varied compositions); assay type: in vivo; details: comparison of Groups A-D, each compound 0.18 mg/ml
Description: This study was similar to Experiment 2, with the following changes. 1. […] 2. […] 3. Test or control compositions were applied daily. Compounds in each test composition were varied 4. N=10 mice per group 5. The each compound in the test compositions was present at a concentration of 0.18 mg/ml. [table]

[4] = biological target: methyl transferase which acts on MBP; details: methyl transferase with subunits of 75 and 100 kDa; cited from earlier work
[5] = cited from earlier work
[6] = test system: LDHκ; assay: LDHκ activity in HeLa cell extracts with SAM added; assay type: biochemical, human; details: addition of SAM to the assay mixture
[7] = test system: AD patients; details: Cohen et al. 1988; cited from earlier work
[8] = test system: genetically diabetic mice; details: Reddi et al. 1988; cited from earlier work
[9] = test system: 3T3 cells; details: cited from earlier work
[10] = test system: cultured rat hepatocytes; details: within 6 hours, cited from earlier work
[11] = test system: RNA polymerase II and synthesis of RNA; details: biotin-deficient rats, within 2 hours after injection of biotin; cited from earlier work
[12] = test system: RSV-infected cells; details: cited from earlier work
[13] = test system: tumor; details: Briggs 1959; tumor size attained prior to treatment was not reduced; cited from earlier work
[14] = test system: injured skin; details: compared to injured skin of saline-treated controls, Smith et al. 1989; cited from earlier work
[15] = test system: tumor; details: mouse model, cited from earlier work
[16] = test system: tRNA in tumor cells; details: tumor-bearing mice; cited from earlier work

Q: Which “increase SAM concentrations” value [1] does the source give for `NCCCC(N)(C(=O)O)C(F)F` (racemic) [DL-α-difluoromethylornithine] here?
A: ≤ 48 fold

Q: And the “healing process of gastric mucosal stress ulcers” value [2]?
A: significantly inhibited

Q: With `NC1(C(=O)O)CC1` [ACC, 1-aminocyclopropanecarboxylic acid] as the compound, how does the “synergy in promoting wound healing” value [3] read?
A: act synergistically in promoting wound healing

Q: With `Nc1ncnc2c1ncn2[C@@H]1O[C@H](CSCC[C@H](N)C(=O)O)[C@@H](O)[C@H]1O` [SAH, S-adenosyl-L-homocysteine] as the compound, how does the Ki [4] read?
A: 1000 nM

Q: For `C[S+](CC[C@H](N)C(=O)O)C[C@H]1O[C@@H](n2cnc3c(N)ncnc32)[C@H](O)[C@@H]1O.C[S+](CC[C@H](N)C(=O)O)C[C@H]1O[C@@H](n2cnc3c(N)ncnc32)[C@H](O)[C@@H]1O.O=S(=O)([O-])[O-]` (stereo partly drawn) [SAM sulfate], which “stable for” value ([5]; 4° C.) is on record?
A: 6 months

Q: Which results are given for `C[S+](CC[C@H](N)C(=O)O)C[C@H]1O[C@@H](n2cnc3c(N)ncnc32)[C@H](O)[C@@H]1O` (stereo partly drawn) [SAM, S-adenosyl-L-methionine]?
A: increase in activity of LDHκ [6]: 8-10 fold; membrane fluidity [7]: increased of membrane fluidity; symptoms [7]: no improvement nor worsening of symptoms

Q: With `O=C(O)CCCC[C@@H]1SC[C@@H]2NC(=O)N[C@@H]21` [biotin] as the compound, how does the “glucose and insulin tolerance” value [8] read?
A: improves glucose and insulin tolerance

Q: And the GAPDH increased ([9]; differentiation with biotin)?
A: 8 fold

Q: What about the aldolase increased ([9]; differentiation with biotin) of the same compound?
A: 20-30 fold

Q: What about the glycerophosphate dehydrogenase increased ([9]; differentiation with biotin) of the same compound?
A: 2,000 fold

Q: And the “actin, % of total protein after treatment” value ([9]; from 12.7% prior to treatment with biotin)?
A: 3.2 % of total protein

Q: And the “synergy in promoting wound healing” value [3]?
A: act synergistically in promoting wound healing

Q: And the increase in glucokinase ([10]; required the presence of insulin)?
A: 4 fold

Q: And the “increase in cGMP” value [10]?
A: 3 fold

Q: And the “increase in RNA polymerase II” value [11]?
A: 2 fold

Q: What about the “increase in the synthesis of RNA” value [11] of the same compound?
A: 2 fold

Q: With `C[S+](CC[C@H](N)C(=O)O)C[C@H]1O[C@@H](n2cnc3c(N)ncnc32)[C@H](O)[C@@H]1O.[Cl-]` (stereo partly drawn) [chloride salt of SAM] as the compound, how does the “loss of activity per day” value ([5]; 25° C.) read?
A: 10 % of activity per day

Q: For `NC1(C(=O)O)CCCC1` [cycloleucine], which “inhibition of cellular methylation” value ([12]; RSV-infected cells, concentrations used) is on record?
A: 95%

Q: And the “RSV-specific mRNAs found” value ([12]; concentrations which inhibit 95% of cellular methylation)?
A: only the 35S viral mRNA is found

Q: With `C[C@@H]1NC(=O)N[C@@H]1CCCCCC(=O)O` [desthiobiotin, reference compound] as the compound, how does the antitumor effects [13] read?
A: further tumor growth was prevented

Q: Which “capillary density in injured skin” value [14] does the source give for `NC(=O)c1cccnc1` [nicotinamide] here?
A: increases the capillary density in injured skin significantly

Q: With `Nc1nc2[nH]cc(CN[C@H]3C=C[C@H](O)[C@@H]3O)c2c(=O)[nH]1` [queuine] as the compound, how does the effect on tumor ([15]; Katze et al. 1980) read?
A: shrinkage of the tumor

Q: And the effect on tumor ([15]; Nishimura et al. 1983, cancer of different type)?
A: no effect

Q: For `Nc1nc2c(c(CN[C@H]3C=C[C@H](O)[C@@H]3O)cn2[C@@H]2O[C@H](CO)[C@@H](O)[C@H]2O)c(=O)[nH]1` [queuosine], which “conversion of G-tRNA to QtRNA in tumor cells” value [16] is on record?
A: complete conversion

Q: For “avidin: the biotin-binding protein avidin”, which antitumor effects [13] is on record?
A: further tumor growth was prevented
